In brackets after ≈: the same amount, converted by molar mass.
Experiments:
[1] = test system: P. aeruginosa (ΔmexAB-oprM); experiment: Broth microdilution MIC in iron-depleted CAMHB (IDM); format: cell-based; details: Pseudomonas aeruginosa; iron-depleted CAMHB (IDM); […]; read-out: Minimum inhibitory concentration, P. aeruginosa ΔmexAB-oprM
A. baumannii CDC-0045 = experiment: microbe, parasite or virus in culture; format: cell-based; details: Acinetobacter baumannii, CDC0045, read-out: MIC, A. baumannii CDC-0045
A. baumannii CDC-0036 = experiment: microbe, parasite or virus in culture; format: cell-based; details: Acinetobacter baumannii, CDC0036, read-out: MIC, A. baumannii CDC-0036
[2] = test system: B. humptydooensis ATCC BAA-2767; experiment: microbe, parasite or virus in culture; format: cell-based; details: Burkholderia humptydooensis, ATCCBAA2767, read-out: Minimum inhibitory concentration (MIC), B. humptydooensis ATCC BAA-2767
A. baumannii ATCC 19606 = experiment: microbe, parasite or virus in culture; format: cell-based; details: Acinetobacter baumannii, ATCC19606, read-out: MIC, A. baumannii ATCC 19606
P. aeruginosa CDC-0095 = experiment: microbe, parasite or virus in culture; format: cell-based; details: Pseudomonas aeruginosa, CDC0095, read-out: Minimum inhibitory concentration, P. aeruginosa CDC-0095
[3] = molecular target: T1, PBP3 from Escherichia coli (K-12) (Escherichia coli, UniProt P0AD68); experiment: Bocillin-FL fluorescence polarization competition binding, E. coli PBP3
T1 construct: made in house
Method in brief: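 Purified PBP was preincubated with inhibitor (E. coli PBP3 1.5 μM, 30 min; P. aeruginosa PBP3 0.75 μM, A. baumannii PBP3 0.2 μM and PBP1a 1 μM, 15 min), then Bocillin-FL (0.1 μM; 0.05 μM for PBP1a) added and FP read up to 60 min. EC50 = 50% loss of bound probe.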

A. baumannii PBP2 = A. baumannii PBP2 (Acinetobacter baumannii, UniProt D0C8Z9); experiment: Bocillin-FL competition binding via gel filtration, A. baumannii PBP2
Method in brief: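 Competitive equilibrium binding; reporter Bocillin-FL. PBP + inhibitor (titration) pre-incubated → Bocillin-FL, 15 min → gel filtration → fluorescence. EC50 from Hill fit of fraction bound vs [inhibitor].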

P. aeruginosa CDC-0090 = experiment: microbe, parasite or virus in culture; format: cell-based; details: Pseudomonas aeruginosa, CDC0090, read-out: Minimum inhibitory concentration, P. aeruginosa CDC-0090
A. baumannii CDC-0033 = experiment: microbe, parasite or virus in culture; format: cell-based; details: Acinetobacter baumannii, CDC0033, read-out: MIC, A. baumannii CDC-0033
A. baumannii ATCC 17978 = experiment: microbe, parasite or virus in culture; format: cell-based; details: Acinetobacter baumannii, ATCC17978, read-out: MIC, A. baumannii ATCC 17978
P. aeruginosa ATCC 35151 = experiment: microbe, parasite or virus in culture; format: cell-based; details: Pseudomonas aeruginosa, ATCC35151, read-out: Minimum inhibitory concentration, P. aeruginosa ATCC 35151

T1 sequence (P0AD68 1-577): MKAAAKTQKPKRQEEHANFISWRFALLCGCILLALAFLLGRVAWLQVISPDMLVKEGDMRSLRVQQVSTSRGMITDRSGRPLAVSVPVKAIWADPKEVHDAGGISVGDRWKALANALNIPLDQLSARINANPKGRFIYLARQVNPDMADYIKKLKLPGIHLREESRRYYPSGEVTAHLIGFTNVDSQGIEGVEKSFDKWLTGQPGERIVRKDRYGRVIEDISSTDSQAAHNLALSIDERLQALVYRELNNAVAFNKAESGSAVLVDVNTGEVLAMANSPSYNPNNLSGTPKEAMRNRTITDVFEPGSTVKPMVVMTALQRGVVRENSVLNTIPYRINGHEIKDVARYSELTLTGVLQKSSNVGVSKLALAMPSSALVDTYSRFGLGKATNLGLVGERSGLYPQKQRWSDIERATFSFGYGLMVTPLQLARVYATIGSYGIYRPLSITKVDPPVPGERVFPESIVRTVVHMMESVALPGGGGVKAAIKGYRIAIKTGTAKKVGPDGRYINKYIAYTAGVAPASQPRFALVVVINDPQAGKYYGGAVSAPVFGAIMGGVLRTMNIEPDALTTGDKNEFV
A. baumannii PBP2, sequence (D0C8Z9 whole entry): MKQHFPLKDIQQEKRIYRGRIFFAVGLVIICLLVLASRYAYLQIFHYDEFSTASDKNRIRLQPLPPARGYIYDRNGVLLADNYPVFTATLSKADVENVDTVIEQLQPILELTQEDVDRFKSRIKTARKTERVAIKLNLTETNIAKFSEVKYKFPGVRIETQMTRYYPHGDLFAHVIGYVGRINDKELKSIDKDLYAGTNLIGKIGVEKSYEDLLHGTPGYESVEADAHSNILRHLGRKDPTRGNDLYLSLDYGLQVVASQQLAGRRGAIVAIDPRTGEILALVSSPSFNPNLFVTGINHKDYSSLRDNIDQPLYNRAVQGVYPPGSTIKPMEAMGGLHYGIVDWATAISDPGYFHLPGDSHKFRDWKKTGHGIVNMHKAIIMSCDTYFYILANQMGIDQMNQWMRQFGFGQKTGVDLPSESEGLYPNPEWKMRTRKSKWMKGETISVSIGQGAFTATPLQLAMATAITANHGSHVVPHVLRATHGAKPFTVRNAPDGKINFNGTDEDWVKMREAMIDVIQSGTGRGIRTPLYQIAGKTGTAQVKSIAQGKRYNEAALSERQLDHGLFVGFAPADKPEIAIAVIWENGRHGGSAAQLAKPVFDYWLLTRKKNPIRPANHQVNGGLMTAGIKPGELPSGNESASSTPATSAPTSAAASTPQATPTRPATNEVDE

| SMILES | MIC [1] [µg/mL] | MIC (A. baumannii CDC-0045) [µg/mL] | MIC (A. baumannii CDC-0036) [µg/mL] | MIC [2] [µg/mL] | MIC (A. baumannii ATCC 19606) [µg/mL] | MIC (P. aeruginosa CDC-0095) [µg/mL] | EC50 [3] [µM] | EC50 (A. baumannii PBP2) [µM] | MIC (P. aeruginosa CDC-0090) [µg/mL] | MIC (A. baumannii CDC-0033) [µg/mL] | MIC (A. baumannii ATCC 17978) [µg/mL] | MIC (P. aeruginosa ATCC 35151) [µg/mL] |
| --- | --- | --- | --- | --- | --- | --- | --- | --- | --- | --- | --- | --- |
| O=C(NCCS(=O)(=O)N1CCN(C(=O)N[C@@H](C(=O)N[C@H]2Cc3ccc(F)c(C(=O)O)c3OB2O)c2cc(F)c(O)c(O)c2Cl)C1=O)c1ccc(O)cc1 [Example 287, (R)-3-((R)-2-(2-chloro-5-fluoro-3,4-dihydroxyphenyl)-2-(3-((2-(4-hydroxybenzamido)ethyl)sulfonyl)-2-oxoimidazolidine-1-carboxamido)acetamido)-7-fluoro-2-hydroxy-3,4-dihydro-2H-benzo[e][1,2]oxaborinine-8-carboxylic acid] | < 1 | < 1 | 2 to 4 (≈ 2.56 to 5.12 µM) | < 1 | < 1 | 2 to 4 (≈ 2.56 to 5.12 µM) | < 10 | < 10 | 2 to 4 (≈ 2.56 to 5.12 µM) | < 1 | < 1 | < 1 |
| O=C(NCCS(=O)(=O)N1CCN(C(=O)NC(C(=O)N[C@H]2Cc3ccc(F)c(C(=O)O)c3OB2O)c2cc(F)c(O)c(O)c2Cl)C1=O)Nc1ccc(O)cc1 (stereo partly drawn) [Example 289, (3R)-3-(2-(2-chloro-5-fluoro-3,4-dihydroxyphenyl)-2-(3-((2-(3-(4-hydroxyphenyl)ureido)ethyl)sulfonyl)-2-oxoimidazolidine-1-carboxamido)acetamido)-7-fluoro-2-hydroxy-3,4-dihydro-2H-benzo[e][1,2]oxaborinine-8-carboxylic acid] | < 1 | 2 to 4 (≈ 2.51 to 5.02 µM) | 2 to 4 (≈ 2.51 to 5.02 µM) | 2 to 4 (≈ 2.51 to 5.02 µM) | < 1 | 2 to 4 (≈ 2.51 to 5.02 µM) | < 10 | 10 to 50 | 2 to 4 (≈ 2.51 to 5.02 µM) | 2 to 4 (≈ 2.51 to 5.02 µM) | < 1 | < 1 |
| O=C(NCCS(=O)(=O)N1CCN(C(=O)N[C@@H](C(=O)N[C@H]2Cc3ccc(F)c(C(=O)O)c3OB2O)c2cc(F)c(O)c(O)c2Cl)C1=O)Nc1ccncc1 [Example 290, (R)-3-((R)-2-(2-chloro-5-fluoro-3,4-dihydroxyphenyl)-2-(2-oxo-3-((2-(3-(pyridin-4-yl)ureido)ethyl)sulfonyl)imidazolidine-1-carboxamido)acetamido)-7-fluoro-2-hydroxy-3,4-dihydro-2H-benzo[e][1,2]oxaborinine-8-carboxylic acid] | < 1 | < 1 | 2 to 4 (≈ 2.56 to 5.12 µM) | < 1 | < 1 | 2 to 4 (≈ 2.56 to 5.12 µM) | < 10 | < 10 | 2 to 4 (≈ 2.56 to 5.12 µM) | 2 to 4 (≈ 2.56 to 5.12 µM) | < 1 | < 1 |
| O=C(O)c1c(F)ccc2c1OB(O)[C@@H](NC(=O)C(NC(=O)N1CCN(C3CCN(C(=O)c4cccc(O)c4)CC3)C(=O)C1=O)c1cc(F)c(O)c(O)c1Cl)C2 (stereo partly drawn) [Example 293, (3R)-3-(2-(2-chloro-5-fluoro-3,4-dihydroxyphenyl)-2-(4-(1-(3-hydroxybenzoyl)piperidin-4-yl)-2,3-dioxopiperazine-1-carboxamido)acetamido)-7-fluoro-2-hydroxy-3,4-dihydro-2H-benzo[e][1,2]oxaborinine-8-carboxylic acid] | < 1 | < 1 | < 1 | < 1 | < 1 | 2 to 4 (≈ 2.54 to 5.09 µM) | < 10 | 10 to 50 | 2 to 4 (≈ 2.54 to 5.09 µM) | 2 to 4 (≈ 2.54 to 5.09 µM) | < 1 | < 1 |
| O=C(NCCCN1CCN(C(=O)NC(C(=O)N[C@H]2Cc3ccc(F)c(C(=O)O)c3OB2O)c2cc(F)c(O)c(O)c2Cl)C(=O)C1=O)c1ccncc1Cl (stereo partly drawn) [Example 295, (3R)-3-(2-(2-chloro-5-fluoro-3,4-dihydroxyphenyl)-2-(4-(3-(3-chloroisonicotinamido)propyl)-2,3-dioxopiperazine-1-carboxamido)acetamido)-7-fluoro-2-hydroxy-3,4-dihydro-2H-benzo[e][1,2]oxaborinine-8-carboxylic acid] | < 1 | < 1 | 2 to 4 (≈ 2.57 to 5.13 µM) | < 1 | < 1 | < 1 | < 10 | 10 to 50 | < 1 | 2 to 4 (≈ 2.57 to 5.13 µM) | < 1 | < 1 |
| O=C(NCCCN1CCN(C(=O)N[C@@H](C(=O)N[C@H]2Cc3ccc(F)c(C(=O)O)c3OB2O)c2cc(F)c(O)c(O)c2Cl)C(=O)C1=O)c1ccncc1O [Example 296, (R)-3-((R)-2-(2-chloro-5-fluoro-3,4-dihydroxyphenyl)-2-(4-(3-(3-hydroxyisonicotinamido)propyl)-2,3-dioxopiperazine-1-carboxamido)acetamido)-7-fluoro-2-hydroxy-3,4-dihydro-2H-benzo[e][1,2]oxaborinine-8-carboxylic acid] | < 1 | < 1 | < 1 | 2 to 4 (≈ 2.63 to 5.26 µM) | < 1 | < 1 | < 10 | < 10 | < 1 | 2 to 4 (≈ 2.63 to 5.26 µM) | < 1 | < 1 |
| Cc1cnccc1C(=O)NCCCN1CCN(C(=O)NC(C(=O)N[C@H]2Cc3ccc(F)c(C(=O)O)c3OB2O)c2cc(F)c(O)c(O)c2Cl)C(=O)C1=O (stereo partly drawn) [Example 297, (3R)-3-(2-(2-chloro-5-fluoro-3,4-dihydroxyphenyl)-2-(4-(3-(3-methylisonicotinamido)propyl)-2,3-dioxopiperazine-1-carboxamido)acetamido)-7-fluoro-2-hydroxy-3,4-dihydro-2H-benzo[e][1,2]oxaborinine-8-carboxylic acid] | < 1 | < 1 | 2 to 4 (≈ 2.64 to 5.27 µM) | < 1 | < 1 | < 1 | < 10 | 10 to 50 | < 1 | 2 to 4 (≈ 2.64 to 5.27 µM) | < 1 | < 1 |
| Cc1cc(C(=O)NCCCN2CCN(C(=O)N[C@@H](C(=O)N[C@H]3Cc4ccc(F)c(C(=O)O)c4OB3O)c3cc(F)c(O)c(O)c3Cl)C(=O)C2=O)ccn1 [Example 298, (R)-3-((R)-2-(2-chloro-5-fluoro-3,4-dihydroxyphenyl)-2-(4-(3-(2-methylisonicotinamido)propyl)-2,3-dioxopiperazine-1-carboxamido)acetamido)-7-fluoro-2-hydroxy-3,4-dihydro-2H-benzo[e][1,2]oxaborinine-8-carboxylic acid] | < 1 | < 1 | < 1 | < 1 | < 1 | < 1 | < 10 | 10 to 50 | < 1 | 2 to 4 (≈ 2.64 to 5.27 µM) | < 1 | < 1 |
| O=C(NCCCN1CCN(C(=O)NC(C(=O)N[C@H]2Cc3ccc(F)c(C(=O)O)c3OB2O)c2cc(F)c(O)c(O)c2Cl)C(=O)C1=O)c1ccc(O)c(Cl)c1 (stereo partly drawn) [Example 305, (3R)-3-(2-(4-(3-(3-chloro-4-hydroxybenzamido)propyl)-2,3-dioxopiperazine-1-carboxamido)-2-(2-chloro-5-fluoro-3,4-dihydroxyphenyl)acetamido)-7-fluoro-2-hydroxy-3,4-dihydro-2H-benzo[e][1,2]oxaborinine-8-carboxylic acid] | < 1 | 2 to 4 (≈ 2.52 to 5.04 µM) | 2 to 4 (≈ 2.52 to 5.04 µM) | 2 to 4 (≈ 2.52 to 5.04 µM) | < 1 | 2 to 4 (≈ 2.52 to 5.04 µM) | < 10 | < 10 | < 1 | 2 to 4 (≈ 2.52 to 5.04 µM) | < 1 | < 1 |
| O=C(NCCCN1CCN(C(=O)NC(C(=O)N[C@H]2Cc3ccc(F)c(C(=O)O)c3OB2O)c2cc(F)c(O)c(O)c2Cl)C(=O)C1=O)c1ccc(O)c(F)c1F (stereo partly drawn) [Example 306, (3R)-3-(2-(2-chloro-5-fluoro-3,4-dihydroxyphenyl)-2-(4-(3-(2,3-difluoro-4-hydroxybenzamido)propyl)-2,3-dioxopiperazine-1-carboxamido)acetamido)-7-fluoro-2-hydroxy-3,4-dihydro-2H-benzo[e][1,2]oxaborinine-8-carboxylic acid] | < 1 | < 1 | 2 to 4 (≈ 2.51 to 5.03 µM) | 2 to 4 (≈ 2.51 to 5.03 µM) | < 1 | < 1 | < 10 | < 10 | < 1 | 2 to 4 (≈ 2.51 to 5.03 µM) | < 1 | < 1 |
